Two molecules from patent US20240002437A1, “COMPOSITIONS AND METHODS OF TREATING INFLAMMATORY LUNG DISEASES” (priority 2020, published 2024) can be followed below.

The test system of one experiment is PKC. Nature of the experiment: PKC activity, dot-blot of PKC-phosphorylated proteins. It is filed as cell-based, ovine. To be noted: PAEC; 4αPDD 10 μM, 2, 4 and 6 hours. How it is done:
(§1) Primary cultures of ovine pulmonary arterial endothelial cells (PAEC) were isolated as described previously (L. K. Kelly, Am J Physiol Lung Cell Mol Physiol, 286(5), L984-91 (2004)). Briefly, cells were maintained in Dulbecco's modified Eagle medium (DMEM) supplemented with 10% fetal calf serum (Hyclone, Logan, UT), antibiotics/antimycotic (500 IU Penicillin, 500 μg/ml Streptomycin, 1.25 μg/ml Amphotericin B; MediaTech, Herndon, VA) at 37° C. in a humidified atmosphere with 5% CO2 and 95% air. Cells were used for experiments between passages 9-14, seeded at ˜50% confluence, and utilized when fully confluent.
Activation of PKC in control and 4αPDD-treated EC was evaluated using dot-blot method and antibodies specific to PKC-phosphorylated proteins. The cell lysates were transferred on nitrocellulose membrane using Bio-Dot Microfiltration apparatus (Bio-Rad) according to Instruction Manual. To detect and evaluate levels of PKC-phosphorylated proteins, Phospho-(Ser) PKC Substrate rabbit polyclonal antibody (Cell Signaling) was used. After visualization of PKC-phosphorylated proteins, the membrane was stripped and re-probed with β-actin antibody for normalization.

The test system of the next experiment is PAEC. Nature of the experiment: Mitochondrial bioenergetics (XF24 Analyzer, OCR) in PAEC. Type of experiment: cell-based, ovine. To be noted: 4αPDD. The method, then: as §1
The XF24 Analyzer (Seahorse Biosciences) and XF CELL MITO STRESS™ Test Kit (#101706-100; Seahorse Biosciences) were used for the mitochondrial bioenergetic analyses. The optimum number of cells/well was determined to be 75,000/0.32 cm^2. At the end of each study, the XF24 culture microplates were incubated in a CO2-free XF prep station at 37° C. for 45 min to allow temperature and pH calibration. Subsequently, each well was sequentially injected Oligomycin (1 μM final concentration), carbonyl cyanide 4-(trifluoromethoxy) phenylhydrazone (FCCP, 1 μM final concentration), and Rotenone+antimycin A (1 μM final concentration of each) and measured the oxygen consumption rate (OCR). These agents were used to determine basal mitochondrial respiration, reserve respiratory capacity and maximal respiratory capacity measurements in pmols/min of oxygen consumed.

The target of a further experiment is purified PKCα (Homo sapiens, UniProt P17252). Nature of the experiment: In vitro peptide binding assay (biotinylated d-peptide, streptavidin capture, blot). Particulars: biotinylated d-peptide 0 to 5 μg, PKC lipid activator, 1 hour room temperature. The method, then: (§2) Biotinylation of the decoy peptide (d-peptide) was performed using the Thermo Scientific EZ-Link Sulfo-NHS-LC-Biotinylation Kit. Briefly, Sulfo-NHS-LC-Biotin was mixed with d-peptide and the reaction mix was incubated at room temperature for 30 minutes. Different concentrations of the biotinylated d-peptide (0 to 5 μg) mixed with either purified eNOS protein or PKCα protein in a reaction mix containing PKC lipid activator were incubated at room temperature for 1 hour. Protein bound to the biotinylated d-peptide was captured using Thermo Scientific streptavidin agarose column and run on a 10% SDS-PAGE gel under reducing condition. The resulting blots were probed with antibodies to eNOS and PKCα protein respectively. Reactive bands were visualized using chemiluminescence on the LI-COR Odyssey image station.

In the next experiment the target is T1, purified eNOS protein (Homo sapiens, UniProt P29474).
T1 sequence (P29474 1-1203): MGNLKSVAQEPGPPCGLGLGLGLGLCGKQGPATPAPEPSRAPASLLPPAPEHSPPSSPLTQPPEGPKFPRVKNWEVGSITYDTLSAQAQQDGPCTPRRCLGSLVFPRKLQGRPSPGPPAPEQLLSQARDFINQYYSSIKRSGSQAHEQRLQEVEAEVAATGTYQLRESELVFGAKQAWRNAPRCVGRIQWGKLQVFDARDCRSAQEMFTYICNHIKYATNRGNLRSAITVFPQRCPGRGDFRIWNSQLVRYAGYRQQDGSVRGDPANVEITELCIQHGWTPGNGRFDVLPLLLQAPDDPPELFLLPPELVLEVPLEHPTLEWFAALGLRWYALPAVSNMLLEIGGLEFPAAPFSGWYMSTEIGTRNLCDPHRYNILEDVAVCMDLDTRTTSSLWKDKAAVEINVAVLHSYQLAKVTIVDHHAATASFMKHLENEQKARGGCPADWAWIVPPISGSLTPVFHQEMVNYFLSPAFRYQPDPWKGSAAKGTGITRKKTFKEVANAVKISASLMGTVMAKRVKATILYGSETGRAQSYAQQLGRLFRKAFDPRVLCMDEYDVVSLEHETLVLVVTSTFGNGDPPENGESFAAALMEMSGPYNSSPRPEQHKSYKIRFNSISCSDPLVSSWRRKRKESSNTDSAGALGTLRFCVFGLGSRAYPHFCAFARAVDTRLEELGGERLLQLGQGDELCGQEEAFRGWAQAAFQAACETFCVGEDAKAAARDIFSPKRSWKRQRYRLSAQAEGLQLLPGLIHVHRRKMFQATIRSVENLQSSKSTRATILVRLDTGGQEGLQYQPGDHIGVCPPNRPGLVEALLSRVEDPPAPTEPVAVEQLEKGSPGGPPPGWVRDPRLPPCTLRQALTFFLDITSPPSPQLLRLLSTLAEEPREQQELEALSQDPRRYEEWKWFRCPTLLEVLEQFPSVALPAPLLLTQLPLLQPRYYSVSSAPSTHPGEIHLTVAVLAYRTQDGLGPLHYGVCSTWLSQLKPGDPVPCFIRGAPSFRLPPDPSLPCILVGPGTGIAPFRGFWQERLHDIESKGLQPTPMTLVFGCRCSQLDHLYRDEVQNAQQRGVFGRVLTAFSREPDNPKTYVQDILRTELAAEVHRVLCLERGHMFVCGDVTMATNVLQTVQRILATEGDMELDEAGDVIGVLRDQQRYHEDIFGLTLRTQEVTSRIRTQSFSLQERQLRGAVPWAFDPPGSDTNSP
The description is as above. Particulars: biotinylated d-peptide 0 to 5 μg, 1 hour room temperature. How it is done:
as §2

Entries after “also recorded” stand apart in the source; their conditions may differ.

With `CCCCCCCCCC(=O)O[C@@H]1[C@@H](C)[C@@]2(O)[C@@H](C=C(CO)C[C@@]3(O)C(=O)C(C)=C[C@@H]23)[C@@H]2C(C)(C)[C@]12OC(=O)CCCCCCCCC` [4αPDD, 4α-Phorbol-12,13 didecanoate], in the experiment with PKC, the PKC activity entry is given as “increases PKC activity”. In the experiment on PAEC, the maximum respiratory capacity result is “reductions”, the “mitochondrial basal O2 consumption” value is on record as “reductions” and the spare respiratory capacity result is listed as “reductions”.

HRKKRRQRRITRKKTFKEVA [d-peptide]: in the experiment with purified PKCα, the “binding to purified PKCα” value was “binds efficiently; also recorded: able to bind efficiently to purified PKCα”. In addition, the “binding to eNOS” value with purified eNOS protein was “but not to eNOS”.
